Laboratory results published in US9828339B2, “Biphenyl derivatives and methods for preparing same” (DONG-A ST CO., LTD, priority 2013, dated 2017).

Target: human muscarinic M3 receptor (Homo sapiens (Human), UniProt P20309)
Experiment: Binding assay on human muscarinic M3 receptor ([3H]-methyl scopolamine displacement)
Conditions: membranes overexpressing human M3 receptor, Ki from IC50 by Cheng-Prusoff, read-out: Binding Affinity to M3 Receptor, Ki
Protocol: [Experimental Example 1] Binding Assay on Human Muscarinic M3 Receptor
Cell membrane proteins (Perkin Elmer) wherein human muscarinic M3 receptor was overexpressed, [^3H]-methyl scopolamine and test compounds in various concentration were cultured in 0.2 ml of Tris-HCl buffer at 25° C. for 120 minutes. The same was filtered under suction through glass fiber filter (Whatman GF/B), and then the filter was washed 5 times with 1 ml of Tris-HCl buffer. The radioactivity of [^3H]-methyl scopolamine adsorbed on the filter was measured by a liquid scintillation counter. Non-specific binding was evaluated under existence of 5 μM of atropine. Affinity of the compound of the present invention to muscarinic M3 receptor was calculated as the dissociation constant (Ki), which can be calculated from concentration (IC50) of test compounds inhibiting 50% of binding of [^3H]-methyl scopolamine (i.e. labeled ligand) according to Cheng and Prusoff [Cheng and Prusoff, Biochem. Pharmacol., 22, 3099, 1973].

human muscarinic M3 receptor, sequence (P20309 whole entry): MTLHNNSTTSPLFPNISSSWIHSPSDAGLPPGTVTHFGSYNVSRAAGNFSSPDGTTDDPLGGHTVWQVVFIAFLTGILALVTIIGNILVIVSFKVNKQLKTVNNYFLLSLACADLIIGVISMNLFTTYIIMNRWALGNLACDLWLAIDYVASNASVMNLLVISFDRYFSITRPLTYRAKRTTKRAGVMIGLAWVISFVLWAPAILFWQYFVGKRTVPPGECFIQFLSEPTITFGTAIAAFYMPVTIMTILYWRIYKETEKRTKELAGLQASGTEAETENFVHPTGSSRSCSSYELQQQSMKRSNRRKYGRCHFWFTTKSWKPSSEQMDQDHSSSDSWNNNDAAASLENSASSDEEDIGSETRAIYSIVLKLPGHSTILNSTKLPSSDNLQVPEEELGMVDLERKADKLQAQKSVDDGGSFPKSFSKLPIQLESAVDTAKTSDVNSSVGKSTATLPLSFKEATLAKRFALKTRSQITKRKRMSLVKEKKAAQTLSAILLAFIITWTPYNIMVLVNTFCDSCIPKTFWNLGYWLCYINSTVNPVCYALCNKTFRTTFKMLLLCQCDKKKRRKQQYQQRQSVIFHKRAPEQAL

Going from `CN1CC[C@@H](COC(=O)Nc2ccccc2-c2cccc(CO)c2)C1` [Example 152, (R)-(1-methylpyrrolidin-3-yl)-methyl (3′-(hydroxymethyl)-[1,1′-biphenyl]-2-yl)carbamate] to `CN1CC[C@@H](COC(=O)Nc2ccccc2-c2cccc(N)c2)C1` [Example 154, (R)-(1-methylpyrrolidin-3-yl)methyl(3′-amino-[1,1′-biphenyl]-2-yl)carbamate], the Ki falls from 147 nM to 16.7 nM (8.8-fold).

`CN1CC[C@@H](COC(=O)Nc2ccccc2-c2cccc(C(N)=O)c2)C1` [Example 153, (R)-(1-methylpyrrolidin-3-yl)methyl(3′-carbamoyl-[1,1′-biphenyl]-2-yl)carbamate] and `CN1CC[C@@H](COC(=O)Nc2ccccc2-c2cccc(C#N)c2)C1` [Example 155, (R)-(1-methylpyrrolidin-3-yl)methyl(3′-cyano-[1,1′-biphenyl]-2-yl)carbamate] cannot be ordered by Ki: over 1000 nM for the first, over 1000 nM for the second.

Compared with `CN1CC[C@@H](COC(=O)Nc2ccccc2-c2cccc(F)c2F)C1` [Example 158, (R)-(1-methylpyrrolidin-3-yl)methyl(2′,3′-difluoro-[1,1′-biphenyl]-2-yl)carbamate], `CN1CCC[C@H]1COC(=O)Nc1ccccc1-c1cccc(F)c1F` [Example 189, (S)-(1-methylpyrrolidin-2-yl)methyl(2′,3′-difluoro-[1,1′-biphenyl]-2-yl)carbamate] is 1.8-fold lower in Ki: 120 nM for the first, 65.6 nM for the second.

Compared with `CN1CCC[C@H]1COC(=O)Nc1ccccc1-c1cc(F)cc(F)c1` [Example 161, (S)-(1-methylpyrrolidin-2-yl)methyl(3′,5′-difluoro-[1,1′-biphenyl]-2-yl)carbamate], `CN1CCC[C@H]1COC(=O)Nc1ccccc1-c1ccc(F)c(F)c1` [Example 162, (S)-(1-methylpyrrolidin-2-yl)methyl(3′,4′-difluoro-[1,1′-biphenyl]-2-yl)carbamate] is 1.7-fold lower in Ki: 8.92 nM for the first, 5.34 nM for the second. The second binds more tightly here.

Compared with `CN1CCC[C@H]1COC(=O)Nc1ccccc1-c1cc(F)c(F)cc1F` [Example 163, (S)-(1-methylpyrrolidin-2-yl)methyl (2′,4′,5′-trifluoro-[1,1′-biphenyl]-2-yl)carbamate], `CN1CCC[C@H]1COC(=O)Nc1ccc(F)cc1-c1cc(F)c(F)cc1F` [Example 173, (S)-(1-methylpyrrolidin-2-yl)methyl (2′,4′,5,5′-tetrafluoro-[1,1′-biphenyl]-2-yl)carbamate] is 2.7-fold higher in Ki: 16.1 nM for the first, 42.7 nM for the second. The first binds more tightly here.

Going from `CN1CCC[C@H]1COC(=O)Nc1ccccc1-c1ccc(Cl)cc1` [Example 164, (S)-(1-methylpyrrolidin-2-yl)methyl(4′-chloro-[1,1′-biphenyl]-2-yl)carbamate] to `CN1CCC[C@H]1COC(=O)Nc1ccc(F)cc1-c1ccc(Cl)cc1` [Example 175, (S)-(1-methylpyrrolidin-2-yl)methyl (4′-chloro-5-fluoro-[1,1′-biphenyl]-2-yl)carbamate], the Ki falls from 36.9 nM to 22.5 nM (1.6-fold). The second binds more tightly here.

Compared with `CN1CCC[C@H]1COC(=O)Nc1ccccc1-c1ccc(Cl)cc1Cl` [Example 167, (S)-(1-methylpyrrolidin-2-yl)methyl(2′,4′-dichloro-[1,1′-biphenyl]-2-yl)carbamate], `CN1CCC[C@H]1COC(=O)Nc1ccc(F)cc1-c1ccc(Cl)cc1Cl` [Example 176, (S)-(1-methylpyrrolidin-2-yl)methyl (2′,4′-dichloro-5-fluoro-[1,1′-biphenyl]-2-yl)carbamate] is higher in Ki: 67.3 nM for the first, over 1000 nM for the second. The first binds more tightly here.

Going from `CN1CCC[C@H]1COC(=O)Nc1ccccc1-c1cccc(O)c1` [Example 168, (S)-(1-methylpyrrolidin-2-yl)methyl(3′-hydroxy-[1,1′-biphenyl]-2-yl)carbamate] to `CN1CCC[C@H]1COC(=O)Nc1ccccc1-c1cccc(N)c1` [Example 170, (S)-(1-methylpyrrolidin-2-yl)methyl(3′-amino-[1,1′-biphenyl]-2-yl)carbamate], the Ki falls from 22.9 nM to 9.23 nM (2.5-fold). The second binds more tightly here.

First: CN1CCC[C@H]1COC(=O)Nc1ccccc1-c1cccc(C#N)c1 [Example 169, (S)-(1-methylpyrrolidin-2-yl)methyl(3′-cyano-[1,1′-biphenyl]-2-yl)carbamate]
Second: CN1CCC[C@H]1COC(=O)Nc1ccc(F)cc1-c1cccc(C#N)c1 [Example 178, (S)-(1-methylpyrrolidin-2-yl)methyl (3′-cyano-5-fluoro-[1,1′-biphenyl]-2-yl)carbamate]
The Ki of the first is lower: 282 nM for the first, over 1000 nM for the second.

Going from `CN1CCC[C@H]1COC(=O)Nc1ccc(F)cc1-c1ccc(F)c(F)c1` [Example 171, (S)-(1-methylpyrrolidin-2-yl)methyl (3′,4′,5-trifluoro-[1,1′-biphenyl]-2-yl)carbamate] to `CN1CCC[C@H]1COC(=O)Nc1ccc(F)cc1-c1ccc(Cl)c(F)c1` [Example 212, (S)-(1-methylpyrrolidin-2-yl)methyl(4′-chloro-3′,5-difluoro-[1,1′-biphenyl]-2-yl)carbamate], the Ki rises from 16.9 nM to over 1000 nM.

Going from `CN1CCC[C@H]1COC(=O)Nc1ccc(F)cc1-c1cccc(Cl)c1` [Example 174, (S)-(1-methylpyrrolidin-2-yl)methyl(3′-chloro-5-fluoro-[1,1′-biphenyl]-2-yl)carbamate] to `CN1CCC[C@H]1COC(=O)Nc1ccc(F)cc1-c1cccc(O)c1` [Example 179, (S)-(1-methylpyrrolidin-2-yl)methyl(3′-hydroxy-5-fluoro-[1,1′-biphenyl]-2-yl)carbamate], the Ki rises from 0.61 nM to 241 nM (400-fold). The first binds more tightly here.

First: CN1CC[C@@H](COC(=O)Nc2cc(F)c(F)cc2-c2cccc(Cl)c2)C1 [Example 182, (R)-(1-methylpyrrolidin-3-yl)methyl (3′-chloro-4,5-difluoro-[1,1′-biphenyl]-2-yl)carbamate]
Second: Cc1cc(C)cc(-c2cc(F)ccc2NC(=O)OC[C@@H]2CCN(C)C2)c1 [Example 193, (R)-(1-methylpyrrolidin-3-yl)methyl(5-fluoro-3′,5′-dimethyl-[1,1′-biphenyl]-2-yl)carbamate]
The Ki of the first is higher: over 1000 nM for the first, 45.8 nM for the second. The second binds more tightly here.

`CN1CCCC1CCOC(=O)Nc1ccccc1-c1cccc(F)c1F` (stereo not drawn) [Example 184, 2-(1-Methylpyrrolidin-2-yl)ethyl(2′,3′-difluoro-[1,1′-biphenyl]-2-yl)carbamate] and `CN1CCCC1CCOC(=O)Nc1ccccc1-c1c(F)cccc1F` (stereo not drawn) [Example 185, 2-(1-Methylpyrrolidin-2-yl)ethyl(2′,6′-difluoro-[1,1′-biphenyl]-2-yl)carbamate] are within 1.5-fold of each other in Ki: 63.5 nM for the first, 46.1 nM for the second.

Compared with `Cc1cc(C)cc(-c2ccccc2NC(=O)OC[C@@H]2CCN(C)C2)c1` [Example 191, (R)-(1-methylpyrrolidin-3-yl)-methyl (3′,5′-dimethyl-[1,1′-biphenyl]-2-yl)carbamate], `Cc1cc(C)cc(-c2cc(F)ccc2NC(=O)OC[C@@H]2CCCN2C)c1` [Example 208, (S)-(1-methylpyrrolidin-2-yl)-methyl(5-fluoro-3′,5′-dimethyl-[1,1′-biphenyl]-2-yl)-carbamate] is 3.6-fold higher in Ki: 30.8 nM for the first, 110 nM for the second. The first binds more tightly here.

Going from `CN1CCC[C@H]1COC(=O)Nc1ccc(F)cc1-c1ccccc1` [Example 200, (S)-(1-methylpyrrolidin-2-yl)methyl(5-fluoro-[1,1′-biphenyl]-2-yl)carbamate] to `Cc1ccc(NC(=O)OC[C@@H]2CCCN2C)c(-c2ccccc2)c1` [Example 206, (S)-(1-methylpyrrolidin-2-yl)methyl(5-methyl-[1,1′-biphenyl]-2-yl)carbamate], the Ki rises from 2.03 nM to 7.32 nM (3.6-fold). The first binds more tightly here.

Compared with `CN1CCC[C@H]1COC(=O)Nc1ccc(F)cc1-c1ccc(C(C)(C)C)cc1` [Example 209, (S)-(1-methylpyrrolidin-2-yl)methyl (4′-(tert-butyl)-5-fluoro-[1,1′-biphenyl]-2-yl)carbamate], `CN1CCC[C@H]1COC(=O)Nc1ccc(F)cc1-c1cccc(N)c1` [Example 213, (S)-(1-methylpyrrolidin-2-yl)methyl (3′-amino-5-fluoro-[1,1′-biphenyl]-2-yl)carbamate] is lower in Ki: over 1000 nM for the first, 53 nM for the second.

Compared with `CN1CCC[C@H]1COC(=O)Nc1ccc(F)cc1-c1cc(F)cc(Cl)c1` [Example 210, (S)-(1-methylpyrrolidin-2-yl)methyl(3′-chloro-5,5′-difluoro-[1,1′-biphenyl]-2-yl)carbamate], `CN1CCC[C@H]1COC(=O)Nc1ccc(F)cc1-c1cc(O)cc(Cl)c1` [Example 216, (S)-(1-methylpyrrolidin-2-yl)methyl(3′-chloro-5-fluoro-5′-hydroxy-[1,1′-biphenyl]-2-yl)carbamate] is 13-fold higher in Ki: 4.6 nM for the first, 60.1 nM for the second. The first binds more tightly here.

`CN1CCC[C@H]1COC(=O)Nc1ccc(F)cc1-c1cccc(C(F)(F)F)c1F` [Example 214, (S)-(1-methylpyrrolidin-2-yl)methyl(2′,5-difluoro-3′-(trifluoromethyl)-[1,1′-biphenyl]-2-yl)carbamate] and `CN1CCC[C@H]1COC(=O)Nc1ccc(F)cc1-c1ccc(C(F)(F)F)cc1C(F)(F)F` [Example 218, (S)-(1-methylpyrrolidin-2-yl)methyl(5-fluoro-2′,4′-bis(trifluoromethyl)-[1,1′-biphenyl]-2-yl)carbamate] cannot be ordered by Ki: over 1000 nM for the first, over 1000 nM for the second.

First: CN1CCC[C@H]1COC(=O)Nc1ccc(F)cc1-c1cc(Cl)cc(C(F)(F)F)c1 [Example 215, (S)-(1-methylpyrrolidin-2-yl)methyl(3′-chloro-5-fluoro-5′-(trifluoromethyl)-[1,1′-biphenyl]-2-yl)carbamate]
Second: COc1cc(Cl)cc(-c2cc(F)ccc2NC(=O)OC[C@@H]2CCCN2C)c1 [Example 217, (S)-(1-methylpyrrolidin-2-yl)methyl (3′-chloro-5-fluoro-5′-methoxy-[1,1′-biphenyl]-2-yl)carbamate]
The Ki of the first is higher: over 1000 nM for the first, 223 nM for the second.

In the case of `CCOc1cccc(-c2cc(F)ccc2NC(=O)OC[C@@H]2CCCN2C)c1` [Example 219, (S)-(1-methylpyrrolidin-2-yl)methyl(3′-ethoxy-5-fluoro-[1,1′-biphenyl]-2-yl)carbamate], the Ki is reported as over 1000 nM.
